Source: WO2023132380A1, “Polynucleotide for cancer treatment encoding 5'-nucleotidase modified protein” (Bpgene Co Ltd, priority 2022, dated 2023)

What was measured:
[1] = target: Human cytosolic 5'deoxyribonucleotidase hdNT-1 (Homo sapiens, UniProt Q8TCD5); details: Preferred substrate, References: J. Biol. Chem. 265:6589-6595 (1990), Biochemical Pharmacol. 66: 471-479 (2003); cited from earlier work
[2] = target: Murine cytosolic 5'deoxyribnucleotidase mdNT-1 (Mus musculus, UniProt Q9JM14); details: Preferred substrate, References: J. Biol. Chem. 275:5409-5415 (1990), Biochemical Pharmacol. 66: 471-479 (2003); cited from earlier work
Chain of Murine cytosolic 5'deoxyribnucleotidase mdNT-1 (Q9JM14 whole entry): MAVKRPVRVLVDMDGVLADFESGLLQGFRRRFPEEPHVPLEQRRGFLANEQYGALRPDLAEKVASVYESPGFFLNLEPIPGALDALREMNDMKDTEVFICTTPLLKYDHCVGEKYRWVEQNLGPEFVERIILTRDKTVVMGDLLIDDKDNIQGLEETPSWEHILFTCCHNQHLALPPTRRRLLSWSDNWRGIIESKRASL

[3] = test system: PBS2 TMP phosphohydrolase (T001), Thymidylate 5'-phosphohydrolase derived from Bacteriophage PBS2, SEQ ID NO: 3; details: Preferred substrate, References: Methods Enzymol. 51:285-290 (1978), Also In house data; cited from earlier work
[4] = target: T1, Human mitochondrial 5'doxyribonucleotidase NT5M (hdNT-2) (Homo sapiens, UniProt Q9NPB1); details: Preferred substrate, References: Biochem. 46:13809-13818 (2007), Biochemical Pharmacol. 66: 471-479 (2003); cited from earlier work
T1 sequence (Q9NPB1 32-228): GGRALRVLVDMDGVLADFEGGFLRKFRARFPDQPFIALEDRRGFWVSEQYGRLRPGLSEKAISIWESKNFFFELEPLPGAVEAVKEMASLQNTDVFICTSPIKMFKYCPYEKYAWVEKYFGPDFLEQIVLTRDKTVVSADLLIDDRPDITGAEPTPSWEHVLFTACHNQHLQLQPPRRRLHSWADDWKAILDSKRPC

[5] = target: T1, Human mitochondrial 5'doxyribonucleotidase NT5M (hdNT-2); experiment: Preferred substrate (km), Table 4: NT5M (hdNT-2); format: biochemical; details: human NT5M compared with T001, according to Table 4

Chain of Human cytosolic 5'deoxyribonucleotidase hdNT-1 (Q8TCD5 whole entry): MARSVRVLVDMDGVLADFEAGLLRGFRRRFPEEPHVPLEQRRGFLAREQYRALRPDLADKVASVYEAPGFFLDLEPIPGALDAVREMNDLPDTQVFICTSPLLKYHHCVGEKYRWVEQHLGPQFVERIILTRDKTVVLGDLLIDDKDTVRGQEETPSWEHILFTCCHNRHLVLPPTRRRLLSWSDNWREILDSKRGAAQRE

SMILES	Km [1] [mM]	Km [2] [mM]	Km [3] [µM]	Km [4] [µM]	affinity for dTMP, times lower [5]
Nc1ncnc2c1ncn2[C@H]1C[C@H](O)[C@@H](COP(=O)(O)O)O1 [dAMP]	3	1			
Nc1nc2c(ncn2[C@H]2C[C@H](O)[C@@H](COP(=O)(O)O)O2)c(=O)[nH]1 [dGMP]	3.3	1.2	700	90	
Cc1cn([C@H]2C[C@H](O)[C@@H](COP(=O)(O)O)O2)c(=O)[nH]c1=O [dTMP, thymidylate]	1.5	1.4	10	300	about 30 times
O=c1ccn([C@H]2C[C@H](O)[C@@H](COP(=O)(O)O)O2)c(=O)[nH]1 [dUMP]	1.5	0.8	800	160	
